Measured values from US20250327793A1, “METHODS OF IDENTIFYING COMPOUNDS THAT MODULATE LAUNDRY MALODOR, MOLDY MALODOR, OR SWEAT MALODOR” (Firmenich SA, priority 2017, published 2025).

Columns and labels:
Olfr120 = Olfr120 (Mus musculus, UniProt Q7TRJ4); test: 1-octen-3-ol concentration-dependent activation of Olfr120: OR-dependent cAMP accumulation in a cell-based assay (functional dose-response); conditions: agonist, mouse Olfr120 (SEQ ID NO: 67), N-terminal FLAG/Rho/Lucy tags, HEK 293T cells, Gαolf, FIG. 6
Olfr120, sequence (Q7TRJ4 1-321): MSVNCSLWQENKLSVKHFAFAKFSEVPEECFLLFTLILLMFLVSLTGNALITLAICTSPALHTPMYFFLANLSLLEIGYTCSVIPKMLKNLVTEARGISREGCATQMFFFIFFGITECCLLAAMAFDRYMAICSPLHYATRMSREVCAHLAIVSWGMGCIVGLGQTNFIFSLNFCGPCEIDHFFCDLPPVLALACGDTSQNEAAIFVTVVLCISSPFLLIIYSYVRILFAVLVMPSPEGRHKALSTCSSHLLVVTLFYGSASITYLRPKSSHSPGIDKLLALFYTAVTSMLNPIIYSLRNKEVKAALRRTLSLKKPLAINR
Description: (§1) The detection method pertains to OR-dependent accumulation of cAMP in said cells, as a result of OR activation by 1-octen-3-ol.
(§2) In a further embodiment, to complete the deorphanization process, the candidate OR genes are further expressed in vitro for confirmation of activity against the compounds used to isolate the olfactory sensory neurons and other structurally-related compounds of interest. […]
(§3) Neurons that were activated by DMTS were further isolated for full transcriptome analysis to identify the responsive odorant receptor. […] Amplified cDNA was then used to generate an Illumina cDNA library for Next-Generation-Sequencing and the generation of 100 base pair single read sequences. […]

Olfr93 = Olfr93 (Mus musculus, UniProt B9EI77); test: 1-octen-3-ol concentration-dependent activation of Olfr93: OR-dependent cAMP accumulation in a cell-based assay (functional dose-response); conditions: agonist, mouse Olfr93 (SEQ ID NO: 63), N-terminal FLAG/Rho/Lucy tags, HEK 293T cells, Gαolf, FIG. 6
Olfr93, sequence (B9EI77 1-312): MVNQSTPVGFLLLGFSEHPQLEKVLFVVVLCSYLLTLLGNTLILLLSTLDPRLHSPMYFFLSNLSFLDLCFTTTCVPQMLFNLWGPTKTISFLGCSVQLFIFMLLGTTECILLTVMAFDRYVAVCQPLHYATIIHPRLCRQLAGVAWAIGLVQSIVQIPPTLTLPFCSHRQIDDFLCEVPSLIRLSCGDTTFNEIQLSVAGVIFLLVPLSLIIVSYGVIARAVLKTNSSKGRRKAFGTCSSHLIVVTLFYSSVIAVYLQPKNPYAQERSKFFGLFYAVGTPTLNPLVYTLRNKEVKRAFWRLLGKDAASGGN
Description: as §1, §2, §3

Olfr398 = Olfr398 (Mus musculus, UniProt Q8VFY0); test: 1-octen-3-ol concentration-dependent activation of Olfr398: OR-dependent cAMP accumulation in a cell-based assay (functional dose-response); conditions: agonist, mouse Olfr398 (SEQ ID NO: 65), N-terminal FLAG/Rho/Lucy tags, HEK 293T cells, Gαolf, FIG. 6
Olfr398, sequence (Q8VFY0 1-314): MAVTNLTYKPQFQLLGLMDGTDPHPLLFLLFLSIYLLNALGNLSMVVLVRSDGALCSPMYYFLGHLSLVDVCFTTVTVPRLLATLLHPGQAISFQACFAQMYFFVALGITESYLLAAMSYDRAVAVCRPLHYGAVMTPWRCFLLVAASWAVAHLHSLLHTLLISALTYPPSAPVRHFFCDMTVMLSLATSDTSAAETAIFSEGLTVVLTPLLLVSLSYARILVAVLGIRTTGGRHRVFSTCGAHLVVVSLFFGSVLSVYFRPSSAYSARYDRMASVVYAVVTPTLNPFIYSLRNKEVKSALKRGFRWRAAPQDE

Olfr1364 = Olfr1364 (Mus musculus, UniProt Q5SZS9); test: 1-octen-3-ol concentration-dependent activation of Olfr1364: OR-dependent cAMP accumulation in a cell-based assay (functional dose-response); conditions: agonist, mouse Olfr1364 (SEQ ID NO: 69), N-terminal FLAG/Rho/Lucy tags, HEK 293T cells, Gαolf, FIG. 6
Olfr1364, sequence (Q5SZS9 9-314): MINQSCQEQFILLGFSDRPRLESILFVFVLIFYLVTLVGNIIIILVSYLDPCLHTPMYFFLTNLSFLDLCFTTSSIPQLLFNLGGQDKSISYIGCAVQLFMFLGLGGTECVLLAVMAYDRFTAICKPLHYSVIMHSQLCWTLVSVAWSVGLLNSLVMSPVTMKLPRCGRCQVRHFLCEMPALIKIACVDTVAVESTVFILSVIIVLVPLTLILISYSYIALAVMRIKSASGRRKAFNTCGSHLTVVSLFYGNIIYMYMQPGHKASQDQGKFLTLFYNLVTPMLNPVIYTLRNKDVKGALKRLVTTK
Description: as §1, §2, §3

Olfr263 = Olfr263 (Mus musculus, UniProt Q7TQT8); test: Concentration-dependent activation of Olfr263: OR-dependent cAMP accumulation in a cell-based assay (functional dose-response); conditions: agonist transpirol, mouse Olfr263 (SEQ ID NO: 22), N-terminal FLAG/Rho/Lucy tags, HEK 293T cells, Gαolf, FIG. 7
Olfr263, sequence (Q7TQT8 1-317): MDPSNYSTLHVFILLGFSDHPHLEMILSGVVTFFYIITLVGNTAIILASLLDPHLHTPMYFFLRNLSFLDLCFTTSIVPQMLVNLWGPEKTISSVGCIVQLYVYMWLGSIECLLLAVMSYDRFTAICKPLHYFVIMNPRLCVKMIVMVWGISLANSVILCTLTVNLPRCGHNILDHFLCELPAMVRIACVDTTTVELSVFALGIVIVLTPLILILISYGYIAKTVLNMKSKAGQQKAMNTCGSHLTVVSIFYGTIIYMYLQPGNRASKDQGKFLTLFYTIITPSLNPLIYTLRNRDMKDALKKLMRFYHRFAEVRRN
Description: (§4) The detection method pertains to OR-dependent accumulation of cAMP in said cells, as a result of OR activation by transpirol.
(§5) The detection method pertains to OR-dependent accumulation of cAMP in said cells, as a result of OR activation by 3-methyl-2-hexenoic acid.
as §2, §3

OR2W1 = target: T1, OR2W1 (Homo sapiens, UniProt Q9Y3N9, M81V); test: Concentration-dependent activation of OR2W1: OR-dependent cAMP accumulation in a cell-based assay (functional dose-response); parameters: expressed in transfected cells; host or cells: HEK293T; conditions: agonist transpirol, human OR2W1 (SEQ ID NO: 2), HEK293T cells expressing Golf, FIG. 7
T1 sequence (Q9Y3N9 1-320 M81V): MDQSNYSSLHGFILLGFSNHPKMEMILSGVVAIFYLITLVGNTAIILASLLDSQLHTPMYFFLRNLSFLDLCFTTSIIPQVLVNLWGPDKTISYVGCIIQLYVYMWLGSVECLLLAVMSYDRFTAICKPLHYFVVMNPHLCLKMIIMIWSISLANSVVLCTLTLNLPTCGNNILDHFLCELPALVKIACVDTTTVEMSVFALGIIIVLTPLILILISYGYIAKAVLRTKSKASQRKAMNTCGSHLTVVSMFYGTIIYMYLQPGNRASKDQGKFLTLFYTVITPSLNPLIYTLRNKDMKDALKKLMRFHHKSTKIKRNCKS
Description: as §4, §5, §2
In the second method, a panel of odorant receptors comprising the 400 putatively functional human receptor repertoire were transfected into a cultured human HEK293T cell line described in WO2014/210585 expressing Human olfactory G-protein alpha subunit (Golf—SEQ. ID No. 49) and coupled to a cyclicAMP reporter. Said panel of in vitro odorant receptors were exposed to MCSs and the level of cAMP signal was measured for each receptor. […]

Olfr46 = Olfr46 (Mus musculus, UniProt Q2VPD7); test: Transpirol concentration-dependent activation of Olfr46: OR-dependent cAMP accumulation in a cell-based assay (functional dose-response); conditions: agonist, mouse Olfr46 (SEQ ID NO: 75), N-terminal FLAG/Rho/Lucy tags, HEK 293T cells, Gαolf, FIG. 7
Olfr46, sequence (Q2VPD7 1-310): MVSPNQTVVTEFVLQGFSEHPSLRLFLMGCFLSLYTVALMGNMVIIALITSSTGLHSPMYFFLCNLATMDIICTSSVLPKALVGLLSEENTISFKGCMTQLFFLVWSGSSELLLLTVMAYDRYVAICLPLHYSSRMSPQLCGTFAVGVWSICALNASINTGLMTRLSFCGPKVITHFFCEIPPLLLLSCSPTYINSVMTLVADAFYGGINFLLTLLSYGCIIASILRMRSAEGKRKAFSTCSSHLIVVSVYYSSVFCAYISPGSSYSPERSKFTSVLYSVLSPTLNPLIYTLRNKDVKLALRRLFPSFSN
Description: as §4, §2, §3

EC50 (Olfr120) [µM] | EC50 (Olfr93) [µM] | EC50 (Olfr398) [µM] | EC50 (Olfr1364) [µM] | EC50 (Olfr263) [µM] | EC50 (OR2W1) [µM] | EC50 (Olfr46) [µM] | Structure (SMILES)
26 | 0.69 | 11.4 | 113 |  |  |  | C=CC(O)CCCCC (stereo not shown) [1-Octen-3-ol, 1-octen-3-ol]
 |  |  |  | 2.3 | 3.1 | 170 | CCCC(C)(S)CCO (stereo not shown) [Transpirol, 3-methyl-3-sulphanylhexanol]
